{"source": "paper PMC9271048", "about": "“Probing strigolactone perception mechanisms with rationally designed small-molecule agonists stimulating germination of root parasitic weeds” (Nature Communications, 2022)", "key": {"P. aegyptiaca seeds": {"tested_on": "P. aegyptiaca seeds", "assay": "P. aegyptiaca seed germination assay", "assay_type": "in vivo, Phelipanche aegyptiaca", "set-up": "P. aegyptiaca germination EC50 values, source data average: unit not given here; P. aegyptiaca seed germination activity, source data average: unit of the concentration uncertain", "details": "for P. aegyptiaca germination(%): Supplementary Table 1, compounds tested at 10 μM, means ± SD, n = 3; for P. aegyptiaca seed germination activity, source data average: Supplementary Fig. 9b", "method": "P. aegyptiaca seeds were harvested from Xinjiang province, China in 2017. The seeds were surface sterilized using 1% NaClO solution for 2 min and then washed with distilled water six times. For seed germination assay, about 20 pieces of glass fiber-filter paper discs (15 mm diameter, Whatman GF/B) were placed separately on two layers of filter papers (9 cm diameter, Whatman) in a Petri dish. Five milliliters of distilled water was added to each Petri dish to wet the papers. Approximately 40–90 sterilized seeds were spread onto each glass fiber-filter paper disc. After the seeds were conditioned in the dark at 25 °C for 4 days[48], glass fiber-filter paper discs were blotted dry on filter papers (9 cm) and transferred to the wells of 24-well cell culture plates. The testing compounds were dissolved in acetone and diluted with H2O (VH2O/Vacetone = 999/1) just before use[49]. rac-GR24 and 1‰ acetone solution were used as positive and negative controls, respectively. One hundred microliters of the test solution was added to each well of the plates, and all treatments were performed in three biological repeats. The plates were sealed and incubated in the dark at 25 °C for a week. The experiments were performed at least three times. The germinated seeds were observed by using an electronic magnifier at ×20 magnification."}, "ShHTL7 [1]": {"molecular_target": "T1, ShHTL7 (Striga hermonthica, UniProt A0A0M3PNA2)", "T1 sequence (A0A0M3PNA2 entry or part of it)": "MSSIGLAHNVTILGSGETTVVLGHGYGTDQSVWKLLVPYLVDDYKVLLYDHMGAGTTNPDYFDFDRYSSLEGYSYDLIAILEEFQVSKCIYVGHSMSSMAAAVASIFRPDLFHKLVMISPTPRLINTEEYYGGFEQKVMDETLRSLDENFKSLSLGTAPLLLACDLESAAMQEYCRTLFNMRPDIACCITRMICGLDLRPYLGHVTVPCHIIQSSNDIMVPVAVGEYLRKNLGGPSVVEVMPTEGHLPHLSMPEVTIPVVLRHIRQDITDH", "assay": "Competitive inhibition of ShHTL7 with Yoshimulactone Green (YLG) as substrate", "assay_type": "biochemical", "method": "Based on the structural feature of the lead compound 2h, we selected three regions to perform further modification (Supplementary Fig. 6), to try to further improve bioactivity. Insertion of a carbonyl group between the bicyclo[2.2.1]hept-5-en-2-yl group and the piperazine ring was detrimental to binding affinity (Supplementary Fig. 6, region A). Removal of an oxygen atom in region B was found unfavorable to binding affinity as well. Therefore, we focused on modifying the benzene ring (region C) for 2h. A series of compounds with different groups at region C was synthesized (Supplementary Scheme 1). […] As SPR just measures the binding ability, another independent assay by using Yoshimulactone Green (YLG) as the fluorescent substrate was performed to determine the half-maximal inhibitory concentration (IC50) of these compounds against ShHTL7[22].\nThe excitation and emission wavelengths of YLG are 480 and 520 nm, respectively. We used a fluorescence spectrophotometer (CARY Eclipse) to detect the fluorescence intensity change of YLG during the enzymatic hydrolysis assay process. All the testing compounds and YLG were dissolved in DMSO and prepared as stock solutions just before use. […] The changes of fluorescence at 520 nm of each well were recorded every 1 min for 30 min. Using the reaction mixture without adding enzyme and tested compounds as the background control. After subtracting the background hydrolysis, a linear fluorescence increase in 8 min was used for further inspection. The IC50 values were determined via fitting relative inhibition percentages with the varying concentrations of compounds in Microsoft Excel."}, "ShHTL7 [2]": {"molecular_target": "T1, ShHTL7", "assay": "biochemical", "assay_type": "binding", "method": "We used a sensitive, high-throughput Surface plasmon resonance (SPR) method to examine the binding affinities of the 51 candidates to the recombinant ShHTL7 protein, which was immobilized on the CM5 sensor chip. rac-GR24 was used as a positive control.\nThe interactions of small molecules with recombinant ShHTL7 were evaluated using the Biacore T200 system (GE Healthcare, USA) at 25 °C[47]. The purified ShHTL7 protein was immobilized on a CM5 sensor chip using the standard amine coupling procedure. […] PBS-P (10 mM phosphate buffer, 2.7 mM KCl, 137 mM NaCl, 0.05% Surfactant P20) containing 0.5% DMSO was used as the running buffer. For the screening experiments, candidates with different structures at 50 μM in the running buffer were injected individually at a flow rate of 30 μL min^−1. For binding affinity studies, compounds with different concentrations in running buffer were used. During the experiments, both the contact and dissociation times were set as 1 min. Data analysis was performed using the Biacore Evaluation Software (T200 Version 2.0). The affinity values (KD) were obtained by the kinetics analysis or the steady-state affinity method."}, "[3]": {"details": "YLG used as the substrate, means ± SD, n = 3, read-out: IC50 (Supplementary Table 1)"}, "[4]": {"details": "YLG as substrate, text and Fig. 2, read-out: IC50, competitive ShHTL7 inhibition (YLG assay)"}, "[5]": {"details": "wild-type ShHTL7, average of 3, source data of Fig. 2a,b, Supplementary Figs. 8a, 9a, 20b, read-out: IC50, competitive ShHTL7 inhibition (YLG), source data average"}, "[6]": {"details": "source data of Fig. 2c and Supplementary Fig. 8b, average of 3"}, "[7]": {"details": "Supplementary Table 7, binding affinities between ShHTL7 and agonists by SPR, read-out: KD/μM"}}, "note": "Where two headings read alike, the source gives them in different places."}
{"compound": "O=C(COc1cc(Cl)ccc1Cl)N1CCN(CC2CC3C=CC2C3)CC1", "note": "(stereo not drawn) [3k]", "values": [{"measurement": "P. aegyptiaca germination(%)", "setting": "P. aegyptiaca seeds", "result": 43.5, "unit": "%"}, {"measurement": "IC50", "setting": "ShHTL7 [1]; [3]", "result": "32.2 ± 1.99", "unit": "µM"}]}
{"compound": "O=C(COc1ccccc1)N1CCN(CC2CC3C=CC2C3)CC1", "note": "(stereo not drawn) [3l]", "values": [{"measurement": "P. aegyptiaca germination(%)", "setting": "P. aegyptiaca seeds", "result": 26.3, "unit": "%"}, {"measurement": "IC50", "setting": "ShHTL7 [1]; [3]", "result": "18 ± 1.32", "unit": "µM"}]}
{"compound": "Cc1ccccc1OCC(=O)N1CCN(CC2CC3C=CC2C3)CC1", "note": "(stereo not drawn) [3m]", "values": [{"measurement": "P. aegyptiaca germination(%)", "setting": "P. aegyptiaca seeds", "result": 29.7, "unit": "%"}, {"measurement": "IC50", "setting": "ShHTL7 [1]; [3]", "result": "9.16 ± 1.2", "unit": "µM"}]}
{"compound": "O=C(COc1ccc(C(F)(F)F)cc1)N1CCN(CC2CC3C=CC2C3)CC1", "note": "(stereo not drawn) [3n]", "values": [{"measurement": "P. aegyptiaca germination(%)", "setting": "P. aegyptiaca seeds", "result": 47.8, "unit": "%"}, {"measurement": "IC50", "setting": "ShHTL7 [1]; [3]", "result": "12.8 ± 2.97", "unit": "µM"}]}
{"compound": "O=C(COc1ccc(Cl)cc1)N1CCN(CC2CC3C=CC2C3)CC1", "note": "(stereo not drawn) [3o]", "values": [{"measurement": "P. aegyptiaca germination(%)", "setting": "P. aegyptiaca seeds", "result": 21.4, "unit": "%"}, {"measurement": "IC50", "setting": "ShHTL7 [1]; [3]", "result": "22 ± 2.43", "unit": "µM"}]}
{"compound": "O=C(COc1ccc([N+](=O)[O-])cc1)N1CCN(CC2CC3C=CC2C3)CC1", "note": "(stereo not drawn) [3p]", "values": [{"measurement": "P. aegyptiaca germination(%)", "setting": "P. aegyptiaca seeds", "result": 18.6, "unit": "%"}, {"measurement": "IC50", "setting": "ShHTL7 [1]; [3]", "result": "15.6 ± 0.37", "unit": "µM"}]}
{"compound": "CS(=O)(=O)c1ccc(OCC(=O)N2CCN(CC3CC4C=CC3C4)CC2)cc1", "note": "(stereo not drawn) [3q]", "values": [{"measurement": "P. aegyptiaca germination(%)", "setting": "P. aegyptiaca seeds", "result": 34.8, "unit": "%"}, {"measurement": "IC50", "setting": "ShHTL7 [1]; [3]", "result": "24.1 ± 6.49", "unit": "µM"}]}
{"compound": "Cc1ccc(CCC(=O)N2CCN(CC3CC4C=CC3C4)CC2)cc1", "note": "(stereo not drawn) [3r]", "values": [{"measurement": "P. aegyptiaca germination(%)", "setting": "P. aegyptiaca seeds", "result": "34.2±6.9", "unit": "%"}, {"measurement": "IC50", "setting": "ShHTL7 [1]; [3]", "result": "34.2 ± 6.9", "unit": "µM"}]}
{"compound": "CC1=CC(OC(=O)N2CCN(C(=O)COc3c(F)c(F)c(F)c(F)c3F)CC2)OC1=O", "note": "(stereo not drawn) [4b]", "values": [{"measurement": "EC50", "setting": "P. aegyptiaca seeds; Phelipanche aegyptiaca, read-out: EC50, P. aegyptiaca seed germination", "result": "~0.0552", "unit": "µM"}, {"measurement": "EC50", "setting": "P. aegyptiaca seeds; Phelipanche aegyptiaca, source data of Fig. 2c and Supplementary Fig. 8b, average of 3, read-out: P. aegyptiaca germination EC50 values, source data average (converted)", "result": 0.0482, "unit": "µM"}, {"measurement": "IC50", "setting": "ShHTL7 [1]; [4]", "result": "3.03 ± 0.58", "unit": "µM"}, {"measurement": "IC50", "setting": "ShHTL7 [1]; [5]", "result": 3.03, "unit": "µM"}, {"measurement": "Kd", "setting": "ShHTL7 [2]", "result": "2.21 ± 0.42", "unit": "µM"}]}
{"compound": "CC1=CC(OC(=O)N2CCN(CC3CC4C=CC3C4)CC2)OC1=O", "note": "(stereo not drawn) [4c]", "values": [{"measurement": "EC50", "setting": "P. aegyptiaca seeds; in vivo, read-out: EC50, P. aegyptiaca seed germination", "result": 0.00226, "unit": "µM"}, {"measurement": "P. aegyptiaca germination EC50 values, source data average", "setting": "P. aegyptiaca seeds; [6]", "result": 8.757}, {"measurement": "IC50", "setting": "ShHTL7 [1]; [4]", "result": "4.56 ± 0.78", "unit": "µM"}, {"measurement": "IC50", "setting": "ShHTL7 [1]; [5]", "result": 4.56, "unit": "µM"}, {"measurement": "Kd", "setting": "ShHTL7 [2]; [7]", "result": "13.9 ± 2.6", "unit": "µM"}]}
{"compound": "CC1=CC(OC(=O)N2CCN(C(=O)COc3ccc(F)cc3C)CC2)OC1=O", "note": "(stereo not drawn) [4d]", "values": [{"measurement": "P. aegyptiaca germination EC50 values, source data average", "setting": "P. aegyptiaca seeds; [6]", "result": 8.181}, {"measurement": "IC50", "setting": "ShHTL7 [1]; [5]", "result": 3.78, "unit": "µM"}, {"measurement": "Kd", "setting": "ShHTL7 [2]; [7]", "result": "0.82 ± 0.26", "unit": "µM"}]}
{"compound": "CC1=CC(OC(=O)N2CCN(C(=O)COc3ccc(Cl)cc3C)CC2)OC1=O", "note": "(stereo not drawn) [4e]", "values": [{"measurement": "P. aegyptiaca germination EC50 values, source data average", "setting": "P. aegyptiaca seeds; [6]", "result": 8.242}, {"measurement": "IC50", "setting": "ShHTL7 [1]; [5]", "result": 2.35, "unit": "µM"}, {"measurement": "Kd", "setting": "ShHTL7 [2]; [7]", "result": "6.33 ± 3.1", "unit": "µM"}]}
{"compound": "CC1=CC(OC(=O)N2CCN(C(=O)C(F)(F)Oc3ccc(Br)cc3C)CC2)OC1=O", "note": "(stereo not drawn) [4f]", "values": [{"measurement": "P. aegyptiaca germination EC50 values, source data average", "setting": "P. aegyptiaca seeds; [6]", "result": 6.406}, {"measurement": "IC50", "setting": "ShHTL7 [1]; [5]", "result": 4.25, "unit": "µM"}, {"measurement": "Kd", "setting": "ShHTL7 [2]; [7]", "result": "1.96 ± 0.29", "unit": "µM"}]}
{"compound": "CCCCOc1ccc(S(=O)(=O)N2CCN(C(=O)OC3C=C(C)C(=O)N3C)CC2)cc1", "note": "(stereo not drawn) [4j]", "values": [{"measurement": "P. aegyptiaca seed germination activity, source data average", "setting": "P. aegyptiaca seeds; 0.1 (unit uncertain) as printed", "result": 4.315, "unit": "%"}, {"measurement": "P. aegyptiaca seed germination activity, source data average", "setting": "P. aegyptiaca seeds; 1 (unit uncertain) as printed", "result": 14.0733, "unit": "%"}, {"measurement": "P. aegyptiaca seed germination activity, source data average", "setting": "P. aegyptiaca seeds; 10 (unit uncertain) as printed", "result": 45.7326, "unit": "%"}, {"measurement": "IC50", "setting": "ShHTL7 [1]; [5]", "result": 105, "unit": "µM"}, {"measurement": "Kd", "setting": "ShHTL7 [2]; [7]", "result": "18.1 ± 6.29", "unit": "µM"}]}
{"compound": "CCCCOc1ccc(S(=O)(=O)N2CCN(C(=O)OC3C=C(C)C(=O)O3)CC2)cc1", "note": "(stereo not drawn) [SPL7, reference compound]", "values": [{"measurement": "P. aegyptiaca germination EC50 values, source data average", "setting": "P. aegyptiaca seeds; [6]", "result": 7.443}, {"measurement": "IC50", "setting": "ShHTL7 [1]; [5]", "result": 4.31, "unit": "µM"}, {"measurement": "Kd", "setting": "ShHTL7 [2]; [7]", "result": "4.81 ± 0.02", "unit": "µM"}]}
{"compound": "C1=CC2CC1CC2CN1CCNCC1", "note": "(stereo not drawn) [ZJT1]", "values": [{"measurement": "P. aegyptiaca germination(%)", "setting": "P. aegyptiaca seeds", "result": 1.6, "unit": "%"}, {"measurement": "IC50", "setting": "ShHTL7 [1]; YLG used as the substrate, read-out: IC50 (Supplementary Table 1), symbol", "result": "> 400", "unit": "µM"}]}
